Measured values published in PubChem BioAssay AID1745844 (Carcinogenic Potency Database (CPDB), 2022).
Active and inactive are the calls of the source. The rule behind the calls is not given here.

Test system: rodent lifetime carcinogenesis bioassay, tumor incidence TD50
Assay: chronic cancer bioassays in animals – CPDB, compiled studies (AID 1745844)

Q: With `C1N2CN3CN1CN(C2)C3` as the compound, how does the carcinogen call (mouse, strain C3Hf/Dp, females, in drinking water, site: any site (literature study), lesion: several types, types named in the paper, dosed 60 weeks, study length 105 weeks) read?
A: Its carcinogen call is “negative (inactive)”.

Q: What about the TD50 (mouse, strain C3Hf/Dp, females, in drinking water, site: liver, lesion: angioma, dosed 60 weeks, study length 105 weeks) of the same compound?
A: Its TD50 is 51900 mg/kg/day (inactive).

Q: What about the carcinogen call (mouse, strain C3Hf/Dp, females, in drinking water, site: liver, lesion: hepatoma, dosed 60 weeks, study length 105 weeks) of the same compound?
A: The carcinogen call was “negative (inactive)”.

Q: What about the carcinogen call (mouse, strain C3Hf/Dp, females, in drinking water, site: lung, lesion: adenoma, dosed 60 weeks, study length 105 weeks) of the same compound?
A: The carcinogen call was “negative (inactive)”.

Q: What about the carcinogen call (mouse, strain C3Hf/Dp, males, in drinking water, site: any site (literature study), lesion: several types, types named in the paper, dosed 60 weeks, study length 105 weeks) of the same compound?
A: Its carcinogen call is “negative (inactive)”.

Q: And the TD50 (mouse, strain C3Hf/Dp, males, in drinking water, site: liver, lesion: angioma, dosed 60 weeks, study length 105 weeks)?
A: The TD50 was 32300 mg/kg/day (inactive).

Q: And the carcinogen call (mouse, strain C3Hf/Dp, males, in drinking water, site: liver, lesion: hepatoma, dosed 60 weeks, study length 105 weeks)?
A: Its carcinogen call is “negative (inactive)”.

Q: And the TD50 (mouse, strain C3Hf/Dp, males, in drinking water, site: lung, lesion: adenoma, dosed 60 weeks, study length 105 weeks)?
A: The TD50 was 293000 mg/kg/day (inactive).

Q: And the TD50 (mouse, strain CTM, females, in drinking water, site: Harderian gland, lesion: one or several types, types not named, dosed 50 weeks, study length 100 weeks)?
A: The TD50 was 26300 mg/kg/day (inactive).

Q: And the TD50 (mouse, strain CTM, females, in drinking water, site: any site (literature study), lesion: several types, types named in the paper, dosed 50 weeks, study length 100 weeks)?
A: The TD50 was 11600 mg/kg/day (inactive).

Q: What about the carcinogen call (mouse, strain CTM, females, in drinking water, site: liver, lesion: angioma, dosed 50 weeks, study length 100 weeks) of the same compound?
A: The carcinogen call was “negative (inactive)”.

Q: And the carcinogen call (mouse, strain CTM, females, in drinking water, site: lung, lesion: adenoma, dosed 50 weeks, study length 100 weeks)?
A: The carcinogen call was “negative (inactive)”.

Q: And the TD50 (mouse, strain CTM, females, in drinking water, site: several sites, sites named in the paper, lesion: one or several types, types not named, dosed 50 weeks, study length 100 weeks)?
A: Its TD50 is 20900 mg/kg/day (inactive).

Q: And the carcinogen call (mouse, strain CTM, males, in drinking water, site: any site (literature study), lesion: several types, types named in the paper, dosed 50 weeks, study length 100 weeks)?
A: The carcinogen call was “negative (inactive)”.

Q: And the carcinogen call (mouse, strain CTM, males, in drinking water, site: liver, lesion: angioma, dosed 50 weeks, study length 100 weeks)?
A: Its carcinogen call is “negative (inactive)”.

Q: What about the carcinogen call (mouse, strain CTM, males, in drinking water, site: lung, lesion: adenoma, dosed 50 weeks, study length 100 weeks) of the same compound?
A: The carcinogen call was “negative (inactive)”.

Q: And the carcinogen call (mouse, strain SWR, females, in drinking water, site: any site (literature study), lesion: several types, types named in the paper, dosed 60 weeks, study length 103 weeks)?
A: The carcinogen call was “negative (inactive)”.

Q: What about the carcinogen call (mouse, strain SWR, females, in drinking water, site: liver, lesion: one or several types, types not named, dosed 60 weeks, study length 103 weeks) of the same compound?
A: The carcinogen call was “negative (inactive)”.

Q: And the carcinogen call (mouse, strain SWR, females, in drinking water, site: lung, lesion: adenoma, dosed 60 weeks, study length 103 weeks)?
A: Its carcinogen call is “negative (inactive)”.

Q: And the carcinogen call (mouse, strain SWR, males, in drinking water, site: any site (literature study), lesion: several types, types named in the paper, dosed 60 weeks, study length 103 weeks)?
A: Its carcinogen call is “negative (inactive)”.

Q: And the carcinogen call (mouse, strain SWR, males, in drinking water, site: liver, lesion: angioma, dosed 60 weeks, study length 103 weeks)?
A: The carcinogen call was “negative (inactive)”.

Q: What about the carcinogen call (mouse, strain SWR, males, in drinking water, site: lung, lesion: adenoma, dosed 60 weeks, study length 103 weeks) of the same compound?
A: The carcinogen call was “negative (inactive)”.

Q: And the carcinogen call (rat, strain Wistar, females, in drinking water, site: any site (literature study), lesion: several types, types named in the paper, dosed 104 weeks, study length 146 weeks)?
A: The carcinogen call was “negative (inactive)”.

Q: And the carcinogen call (rat, strain Wistar, females, in drinking water, site: liver, lesion: one or several types, types not named, dosed 104 weeks, study length 146 weeks)?
A: The carcinogen call was “negative (inactive)”.

Q: And the carcinogen call (rat, strain Wistar, males, in drinking water, site: any site (literature study), lesion: several types, types named in the paper, dosed 104 weeks, study length 146 weeks)?
A: The carcinogen call was “negative (inactive)”.

Q: What about the carcinogen call (rat, strain Wistar, males, in drinking water, site: liver, lesion: liver-cell carcinoma, dosed 104 weeks, study length 146 weeks) of the same compound?
A: Its carcinogen call is “negative (inactive)”.

Q: Which TD50 (hamster, strain Syrian Golden, males, by gavage, site: liver, lesion: neoplastic nodule, dosed 58 weeks, study length 61 weeks) does the source give for `CN(C)CCN(Cc1cccs1)c1ccccn1` here?
A: Its TD50 is 150 mg/kg/day.

Q: And the TD50 (rat, strain Fischer 344, females, in feed, site: liver, lesion: hepatocellular carcinoma, dosed 110 weeks, study length 133 weeks)?
A: The TD50 was 61.6 mg/kg/day.

Q: And the TD50 (rat, strain Fischer 344, females, in feed, site: liver, lesion: neoplastic nodule, dosed 110 weeks, study length 133 weeks)?
A: Its TD50 is 11.8 mg/kg/day.

Q: And the TD50 (rat, strain Fischer 344, females, in feed, site: liver, lesion: several types, types named in the paper, dosed 110 weeks, study length 133 weeks)?
A: The TD50 was 7.65 mg/kg/day.

Q: And the carcinogen call (rat, strain Fischer 344, males, in feed, site: liver, lesion: basophil adenoma, dosed 73 weeks, study length 73 weeks)?
A: Its carcinogen call is “positive”.

Q: What about the TD50 (rat, strain Fischer 344, males, in feed, site: liver, lesion: cholangiocarcinoma, dosed 110 weeks, study length 133 weeks) of the same compound?
A: The TD50 was 400 mg/kg/day.

Q: What about the carcinogen call (rat, strain Fischer 344, males, in feed, site: liver, lesion: eosinophilic adenoma, dosed 73 weeks, study length 73 weeks) of the same compound?
A: Its carcinogen call is “positive”.

Q: What about the TD50 (rat, strain Fischer 344, males, in feed, site: liver, lesion: hepatocellular carcinoma, solid, dosed 73 weeks, study length 73 weeks) of the same compound?
A: The TD50 was 26.4 mg/kg/day.

Q: What about the TD50 (rat, strain Fischer 344, males, in feed, site: liver, lesion: hepatocellular carcinoma, trabecular, dosed 73 weeks, study length 73 weeks) of the same compound?
A: Its TD50 is 26.4 mg/kg/day.

Q: What about the TD50 (rat, strain Fischer 344, males, in feed, site: liver, lesion: hepatocellular carcinoma, dosed 73 weeks, study length 73 weeks) of the same compound?
A: Its TD50 is 14.7 mg/kg/day.

Q: And the TD50 (rat, strain Fischer 344, males, in feed, site: liver, lesion: hepatocellular carcinoma, dosed 110 weeks, study length 133 weeks)?
A: The TD50 was 77 mg/kg/day.

Q: What about the TD50 (rat, strain Fischer 344, males, in feed, site: liver, lesion: neoplastic nodule, dosed 110 weeks, study length 133 weeks) of the same compound?
A: The TD50 was 11.1 mg/kg/day.

Q: And the TD50 (rat, strain Fischer 344, males, in feed, site: liver, lesion: several types, types named in the paper, dosed 110 weeks, study length 133 weeks)?
A: The TD50 was 7.7 mg/kg/day.

Q: How did the TD50 (rat, strain Fischer 344, males, by gavage, site: liver, lesion: hepatocellular carcinoma, dosed 50 weeks, study length 83 weeks) turn out when `CCC(C)[N+](=O)[O-]` (stereo unspecified) was run?
A: Its TD50 is 2.86 mg/kg/day.

Q: Which results are given for `ClC1=C(Cl)[C@]2(Cl)[C@H]3[C@H]([C@@H]4C=C[C@H]3C4)[C@@]1(Cl)C2(Cl)Cl`?
A: carcinogen call (mouse, strain B6C3F1, females, in feed, site: any site (literature study), lesion: several types, types named in the paper, dosed 80 weeks, study length 90 weeks): negative (inactive); TD50 (mouse, strain B6C3F1, females, in feed, site: lung, lesion: alveolar/bronchiolar adenoma + alveolar/bronchiolar carcinoma, dosed 80 weeks, study length 90 weeks): 9.02 mg/kg/day; TD50 (mouse, strain B6C3F1, males, in feed, site: any site (literature study), lesion: several types, types named in the paper, dosed 80 weeks, study length 90 weeks): 1.01 mg/kg/day; TD50 (mouse, strain B6C3F1, males, in feed, site: liver, lesion: hepatocellular adenoma + hepatocellular carcinoma + neoplastic nodule, dosed 80 weeks, study length 90 weeks): 0.741 mg/kg/day; TD50 (mouse, strain B6C3F1, males, in feed, site: liver, lesion: hepatocellular carcinoma, dosed 80 weeks, study length 89 weeks): 0.861 mg/kg/day; TD50 (mouse, strain B6C3F1, males, in feed, site: liver, lesion: hepatocellular carcinoma, dosed 80 weeks, study length 90 weeks): 0.741 mg/kg/day; TD50 (mouse, strain B6C3F1, males, in feed, site: lung, lesion: alveolar/bronchiolar adenoma + alveolar/bronchiolar carcinoma, dosed 80 weeks, study length 90 weeks): 3.2 mg/kg/day; TD50 (mouse, strain C3HeB/Fe, both sexes, in feed, site: any site (literature study), lesion: benign tumor, dosed 104 weeks, study length 104 weeks): 4.25 mg/kg/day; TD50 (mouse, strain C3HeB/Fe, both sexes, in feed, site: liver, lesion: hepatocellular adenoma, dosed 104 weeks, study length 104 weeks): 4.41 mg/kg/day; TD50 (mouse, strain C3HeB/Fe, both sexes, in feed, site: liver, lesion: hepatoma, dosed 104 weeks, study length 104 weeks): 3.45 mg/kg/day; TD50 (mouse, strain C3HeB/Fe, both sexes, in feed, site: lung, lesion: carcinoma, dosed 104 weeks, study length 104 weeks): 129 mg/kg/day; carcinogen call (rat, strain Not specified, females, in feed, site: any site (literature study), lesion: one or several types, types not named, dosed 104 weeks, study length 104 weeks): negative (inactive); carcinogen call (rat, strain Not specified, males, in feed, site: any site (literature study), lesion: one or several types, types not named, dosed 104 weeks, study length 104 weeks): negative (inactive); carcinogen call (rat, strain Osborne-Mendel, both sexes, in feed, site: any site (literature study), lesion: several types, types named in the paper, dosed 104 weeks, study length 104 weeks): positive; TD50 (rat, strain Osborne-Mendel, both sexes, in feed, site: lung, lesion: lymphosarcoma, dosed 104 weeks, study length 104 weeks): 42.3 mg/kg/day; TD50 (rat, strain Osborne-Mendel, females, in feed, site: adrenal gland, lesion: cortical adenoma, dosed 80 weeks, study length 109 weeks): 3.12 mg/kg/day (inactive); TD50 (rat, strain Osborne-Mendel, females, in feed, site: any site (literature study), lesion: one or several types, types not named, dosed 104 weeks, study length 104 weeks): 1.69 mg/kg/day; carcinogen call (rat, strain Osborne-Mendel, females, in feed, site: any site (literature study), lesion: several types, types named in the paper, dosed 80 weeks, study length 111 weeks): negative (inactive); carcinogen call (rat, strain Osborne-Mendel, females, in feed, site: any site (literature study), lesion: several types, types named in the paper, dosed 108 weeks, study length 108 weeks): negative (inactive); carcinogen call (rat, strain Osborne-Mendel, females, in feed, site: any site (literature study), lesion: several types, types named in the paper, dosed 111 weeks, study length 117 weeks): negative (inactive); TD50 (rat, strain Osborne-Mendel, females, in feed, site: liver, lesion: hepatocellular adenoma + hepatocellular carcinoma + neoplastic nodule, dosed 80 weeks, study length 111 weeks): 466 mg/kg/day; carcinogen call (rat, strain Osborne-Mendel, females, in feed, site: liver, lesion: one or several types, types not named, dosed 104 weeks, study length 104 weeks): negative (inactive); carcinogen call (rat, strain Osborne-Mendel, females, in feed, site: liver, lesion: one or several types, types not named, dosed 108 weeks, study length 108 weeks): negative (inactive); carcinogen call (rat, strain Osborne-Mendel, females, in feed, site: liver, lesion: one or several types, types not named, dosed 111 weeks, study length 117 weeks): negative (inactive); TD50 (rat, strain Osborne-Mendel, females, in feed, site: lymphoreticular system, lesion: one or several types, types not named, dosed 104 weeks, study length 104 weeks): 4.35 mg/kg/day (inactive); TD50 (rat, strain Osborne-Mendel, males, in feed, site: any site (literature study), lesion: several types, types named in the paper, dosed 74 weeks, study length 111 weeks): 16.4 mg/kg/day (inactive); TD50 (rat, strain Osborne-Mendel, males, in feed, site: any site (literature study), lesion: several types, types named in the paper, dosed 108 weeks, study length 108 weeks): 4.21 mg/kg/day (inactive); carcinogen call (rat, strain Osborne-Mendel, males, in feed, site: any site (literature study), lesion: several types, types named in the paper, dosed 124 weeks, study length 134 weeks): negative (inactive); carcinogen call (rat, strain Osborne-Mendel, males, in feed, site: liver, lesion: hemangioma, dosed 124 weeks, study length 134 weeks): negative (inactive); carcinogen call (rat, strain Osborne-Mendel, males, in feed, site: liver, lesion: one or several types, types not named, dosed 108 weeks, study length 108 weeks): negative (inactive); carcinogen call (rat, strain Sprague-Dawley, females, in feed, site: liver, lesion: one or several types, types not named, dosed 104 weeks, study length 104 weeks): negative (inactive)
